From patent publication US10344025B2, “GLS1 inhibitors for treating disease” (Board of Regents, The University of Texas System, priority 2014, dated 2019) come the findings set out here.

Experiment [1] concerns the target purified recombinant human GAC (GLS1) (Homo sapiens (Human), UniProt O94925). In words: GLS1 Enzymatic Activity Assay (dual-coupled enzymatic assay, resorufin/Amplex UltraRed readout).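 Note: glutamate from GAC coupled via glutamate oxidase and peroxidase to resorufin, read as fluorescence (ex 530, em 590 nm) kinetically or at 20 min, four-parameter logistic IC50 fit.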 It is filed as biochemical.
Experiment [2] deals with A549 cells. In words: Proliferation Assay (A549 viability, Cell Titer Fluor, 72 hours). The experiment is classed as cell-based. The conditions noted are these: Homo sapiens, A549, 72 h. The method, boiled down: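 Cell Titer Fluor fluorescence after 72 h compound treatment (0.5% DMSO, 37 °C, 5% CO2) of A549 cells plated 24 h earlier at 1000/well. Four-parameter logistic fitting gave IC50.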

Sequence of purified recombinant human GAC (GLS1) (O94925 other isoform, or with tags, fused parts or gaps): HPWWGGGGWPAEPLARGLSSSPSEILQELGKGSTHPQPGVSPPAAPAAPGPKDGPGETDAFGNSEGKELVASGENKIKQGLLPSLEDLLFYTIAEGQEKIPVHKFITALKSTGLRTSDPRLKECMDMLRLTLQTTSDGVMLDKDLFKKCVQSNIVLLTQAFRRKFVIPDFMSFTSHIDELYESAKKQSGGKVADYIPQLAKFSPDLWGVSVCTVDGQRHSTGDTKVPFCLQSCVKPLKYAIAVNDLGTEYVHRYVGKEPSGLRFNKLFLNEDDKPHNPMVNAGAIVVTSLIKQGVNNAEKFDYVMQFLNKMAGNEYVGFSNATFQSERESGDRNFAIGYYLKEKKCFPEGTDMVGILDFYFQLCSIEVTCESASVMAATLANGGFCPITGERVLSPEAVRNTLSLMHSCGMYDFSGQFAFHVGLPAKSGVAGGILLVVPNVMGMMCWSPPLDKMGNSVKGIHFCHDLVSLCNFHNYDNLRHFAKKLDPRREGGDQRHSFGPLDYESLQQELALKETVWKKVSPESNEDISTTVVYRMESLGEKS

For `O=C(Cc1cccc(OC(F)(F)F)c1)Nc1nnc(CCC(F)Cn2cc(C(=O)NCc3ccc(C(F)(F)F)nc3)nn2)s1` (stereo not drawn) [Example 498, 1-[2-fluoro-4-(5-{2-[3-(trifluoromethoxy)phenyl]acetamido}-1,3,4-thiadiazol-2-yl)butyl]-N-{[6-(trifluoromethyl)pyridin-3-yl]methyl}-1H-1,2,3-triazole-4-carboxamide], the IC50 in experiment [1] was less than 100 nM. The same compound displayed a concentration for a half-maximal effect (EC50) in experiment [2] of less than 100 nM.

With `O=C(NCc1cc(C(F)(F)F)ccn1)c1cn(CC(F)CCc2nnc(C(=O)NCC(F)(F)F)s2)nn1` (stereo not drawn) [Example 499, 5-{3-fluoro-4-[4-({[4-(trifluoromethyl)pyridin-2-yl]methyl}carbamoyl)-1H-1,2,3-triazol-1-yl]butyl}-N-(2,2,2-trifluoroethyl)-1,3,4-thiadiazole-2-carboxamide], in experiment [1], the IC50 was 100 to 500 nM. Besides, the 50% effective concentration (EC50) in experiment [2] was in the range of 100 to 500 nM.

In the case of `O=C(NCc1cncc(C(F)(F)F)c1)c1cn(CC(F)CCc2nnc(C(=O)NCC(F)(F)F)s2)nn1` (stereo not drawn) [Example 500, 5-{3-fluoro-4-[4-({[5-(trifluoromethyl)pyridin-3-yl]methyl}carbamoyl)-1H-1,2,3-triazol-1-yl]butyl}-N-(2,2,2-trifluoroethyl)-1,3,4-thiadiazole-2-carboxamide], the IC50 in experiment [1] fell in the range of 100 to 500 nM. Further, in experiment [2], the EC50 fell in the range of 100 to 500 nM.

Turning to `CNC(=O)c1cn(CC(F)CCc2nnc(C(=O)NCc3cncc(C(F)(F)F)c3)s2)nn1` (stereo not drawn) [Example 501, 5-{3-fluoro-4-[4-(methylcarbamoyl)-1H-1,2,3-triazol-1-yl]butyl}-N-{[- (trifluoromethyl)pyridin-3-yl]methyl}-1,3,4-thiadiazole-2-carboxamide], the IC50 in experiment [1] lay in the range of 100 to 500 nM. Besides, the EC50 in experiment [2] fell in the range of 100 to 500 nM.

`O=C(NCCC(F)(F)F)c1cn(CC(F)CCc2nnc(C(=O)NCc3cncc(C(F)(F)F)c3)s2)nn1` (stereo not drawn) [Example 502, 5-(3-fluoro-4-{4-[(3,3,3-trifluoropropyl)carbamoyl]-1H-1,2,3-triazol-1-yl}butyl)-N-{[5-(trifluoromethyl)pyridin-3-yl]methyl}-1,3,4-thiadiazole-2-carboxamide]: the IC50 in experiment [1] is 100 to 500 nM. The compound also returned a concentration giving a half-maximal response (EC50) in experiment [2] of 100 to 500 nM.

As for `CNC(=O)c1nnc(CCC(F)Cn2cc(C(=O)NCc3cc(C(F)(F)F)ccn3)nn2)s1` (stereo not drawn) [Example 503, 5-{3-fluoro-4-[4-({[4-(trifluoromethyl)pyridin-2-yl]methyl}carbamoyl)-1H-1,2,3-triazol-1-yl]butyl}-N-methyl-1,3,4-thiadiazole-2-carboxamide], the half-inhibitory concentration (IC50) in experiment [1] was 100 to 500 nM. The compound further displayed an EC50 in experiment [2] of 500 to 5000 nM.

Consider `CNC(=O)c1nnc(CCC(F)Cn2cc(C(=O)NCc3cccc(OC(F)(F)F)c3)nn2)s1` (stereo not drawn) [Example 504, 5-{3-fluoro-4-[4-({[3-(trifluoromethoxy)phenyl]methyl}carbamoyl)-1H-1,2,3-triazol-1-yl]butyl}-N-methyl-1,3,4-thiadiazole-2-carboxamide], for which the half-inhibitory concentration (IC50) in experiment [1] is less than 100 nM. For the same compound, the EC50 in experiment [2] is 100 to 500 nM.

For the compound `N#CCNC(=O)c1cn(CC(F)CCc2nnc(NC(=O)Cc3cccc(OC(F)(F)F)c3)s2)nn1` (stereo not drawn) [Example 505, N-(cyanomethyl)-1-[2-fluoro-4-(5-{2-[3-(trifluoromethoxy)phenyl]acetamido}-1,3,4-thiadiazol-2-yl)butyl]-1H-1,2,3-triazole-4-carboxamide], the IC50 in experiment [1] was less than 100 nM. For the same compound, in experiment [2], the half-maximal effective concentration (EC50) was 100 to 500 nM.

`O=C(NCC(F)(F)F)c1cn(CC(F)CCc2nnc(C(=O)NCc3cncc(C(F)(F)F)c3)s2)nn1` (stereo not drawn) [Example 506, 5-(3-fluoro-4-{4-[(2,2,2-trifluoroethyl)carbamoyl]-1H-1,2,3-triazol-1-yl}butyl)-N-{[5-(trifluoromethyl)pyridin-3-yl]methyl}-1,3,4-thiadiazole-2-carboxamide]: the 50% inhibitory concentration (IC50) in experiment [1] was in the range of 100 to 500 nM. Also, the EC50 in experiment [2] is 100 to 500 nM.

In the case of `CNC(=O)c1nnc(CCC(F)Cn2cc(C(=O)NCc3cncc(C(F)(F)F)c3)nn2)s1` (stereo not drawn) [Example 507, 5-{3-fluoro-4-[4-({[5-(trifluoromethyl)pyridin-3-yl]methyl}carbamoyl)-1H-1,2,3-triazol-1-yl]butyl}-N-methyl-1,3,4-thiadiazole-2-carboxamide], the half-maximal inhibitory concentration (IC50) in experiment [1] fell in the range of 100 to 500 nM. In addition, in experiment [2], the concentration for a half-maximal effect (EC50) is 100 to 500 nM.

On to `O=C(NCC(F)(F)F)c1cn(CC(F)CCc2nnc(C(=O)NCc3cc(C(F)(F)F)ccn3)s2)nn1` (stereo not drawn) [Example 509, 5-(3-fluoro-4-{4-[(2,2,2-trifluoroethyl)carbamoyl]-1H-1,2,3-triazol-1-yl}butyl)-N-{[4-(trifluoromethyl)pyridin-2-yl]methyl}-1,3,4-thiadiazole-2-carboxamide], for which the IC50 in experiment [1] fell in the range of 100 to 500 nM. The 50% effective concentration (EC50) in experiment [2] lay within 100 to 500 nM.

With `O=C(NCCC(F)(F)F)c1cn(CC(F)CCc2nnc(C(=O)NCc3cc(C(F)(F)F)ccn3)s2)nn1` (stereo not drawn) [Example 510, 5-(3-fluoro-4-{4-[(3,3,3-trifluoropropyl)carbamoyl]-1H-1,2,3-triazol-1-yl}butyl)-N-{[4-(trifluoromethyl)pyridin-2-yl]methyl}-1,3,4-thiadiazole-2-carboxamide], the half-inhibitory concentration (IC50) in experiment [1] lay within 100 to 500 nM. The compound also had a half-maximal effective concentration (EC50) in experiment [2] of 500 to 5000 nM.

In the case of `O=C(NCc1cc(C(F)(F)F)ccn1)c1cn(CC(F)CCc2nnc(C(=O)NCCC(F)(F)F)s2)nn1` (stereo not drawn) [Example 511, 5-{3-fluoro-4-[4-({[4-(trifluoromethyl)pyridin-2-yl]methyl}carbamoyl)-1H-1,2,3-triazol-1-yl]butyl}-N-(3,3,3-trifluoropropyl)-1,3,4-thiadiazole-2-carboxamide], in experiment [1], the 50% inhibitory concentration (IC50) was 100 to 500 nM. Further, the EC50 in experiment [2] is 500 to 5000 nM.

For the compound `O=C(NCc1cncc(C(F)(F)F)c1)c1cn(CC(F)CCc2nnc(C(=O)NCCC(F)(F)F)s2)nn1` (stereo not drawn) [Example 512, 5-{3-fluoro-4-[4-({[5-(trifluoromethyl)pyridin-3-yl]methyl}carbamoyl)-1H-1,2,3-triazol-1-yl]butyl}-N-(3,3,3-trifluoropropyl)-1,3,4-thiadiazole-2-carboxamide], in experiment [1], the half-maximal inhibitory concentration (IC50) lay in the range of 100 to 500 nM. The compound further had a 50% effective concentration (EC50) in experiment [2] of 100 to 500 nM.

Consider `O=C(Cc1ccccn1)Nc1nnc(CCC(F)Cn2cc(C(=O)NCc3cccc(OC(F)(F)F)c3)nn2)s1` (stereo not drawn) [Example 513, 1-(2-fluoro-4-{5-[2-(pyridin-2-yl)acetamido]-1,3,4-thiadiazol-2-yl}butyl)-N-{[3-(trifluoromethoxy)phenyl]methyl}-1H-1,2,3-triazole-4-carboxamide], for which the half-inhibitory concentration (IC50) in experiment [1] is less than 100 nM. This compound also returned an EC50 in experiment [2] of less than 100 nM.

Take `O=C(Cc1ccccn1)Nc1nnc(CCC(F)Cn2cc(C(=O)NCc3cc(OC(F)(F)F)ccc3F)nn2)s1` (stereo not drawn) [Example 514, 1-(2-fluoro-4-{5-[2-(pyridin-2-yl)acetamido]-1,3,4-thiadiazol-2-yl}butyl)-N-{[2-fluoro-5-(trifluoromethoxy)phenyl]methyl}-1H-1,2,3-triazole-4-carboxamide]: the 50% inhibitory concentration (IC50) in experiment [1] is less than 100 nM. The EC50 in experiment [2] was less than 100 nM.

As for `N#CCNC(=O)c1nnc(CCC(F)Cn2cc(C(=O)NCc3cccc(OC(F)(F)F)c3)nn2)s1` (stereo not drawn) [Example 515, N-(cyanomethyl)-5-{3-fluoro-4-[4-({[3-(trifluoromethoxy)phenyl]methyl}carbamoyl)-1H-1,2,3-triazol-1-yl]butyl}-1,3,4-thiadiazole-2-carboxamide], the IC50 in experiment [1] is less than 100 nM. Further, the EC50 in experiment [2] lay within 100 to 500 nM.

Turning to `O=C(Cc1cc(OC(F)(F)F)ccc1F)Nc1nnc(CCC(F)Cn2cc(C(=O)NCc3ccc(C(F)(F)F)cn3)nn2)s1` (stereo not drawn) [Example 516, 1-[2-fluoro-4-(5-{2-[2-fluoro-5-(trifluoromethoxy)phenyl]acetamido}-1,3,4-thiadiazol-2-yl)butyl]-N-{[5-(trifluoromethyl)pyridin-2-yl]methyl}-1H-1,2,3-triazole-4-carboxamide], the 50% inhibitory concentration (IC50) in experiment [1] was less than 100 nM. The concentration giving a half-maximal response (EC50) in experiment [2] is less than 100 nM.

On to `O=C(Cc1cc(OC(F)(F)F)ccc1F)Nc1nnc(CCC(F)Cn2cc(C(=O)NCc3cc(C(F)(F)F)ccn3)nn2)s1` (stereo not drawn) [Example 517, 1-[2-fluoro-4-(5-{2-[2-fluoro-5-(trifluoromethoxy)phenyl]acetamido}-1,3,4-thiadiazol-2-yl)butyl]-N-{[4-(trifluoromethyl)pyridin-2-yl]methyl}-1H-1,2,3-triazole-4-carboxamide], for which the 50% inhibitory concentration (IC50) in experiment [1] was less than 100 nM. The compound further had an EC50 in experiment [2] of less than 100 nM.

Take `CNC(=O)c1cn(CC(F)CCc2nnc(NC(=O)Cc3cc(OC(F)(F)F)ccc3F)s2)nn1` (stereo not drawn) [Example 518, 1-[2-fluoro-4-(5-{2-[2-fluoro-5-(trifluoromethoxy)phenyl]acetamido}-1,3,4-thiadiazol-2-yl)butyl]-N-methyl-1H-1,2,3-triazole-4-carboxamide]: the half-inhibitory concentration (IC50) in experiment [1] is less than 100 nM. In experiment [2], the EC50 was less than 100 nM.

With `CNC(=O)c1cn(CC(F)CCc2nnc(NC(=O)Cc3ccccn3)s2)nn1` (stereo not drawn) [Example 519, 1-(2-fluoro-4-{5-[2-(pyridin-2-yl)acetamido]-1,3,4-thiadiazol-2-yl}butyl)-N-methyl-1H-1,2,3-triazole-4-carboxamide], the IC50 in experiment [1] is 100 to 500 nM. This compound registered an EC50 in experiment [2] of 500 to 5000 nM.

`O=C(NCc1cc(C(F)(F)F)ccn1)c1cn(CC(F)CCc2nnc(C(=O)NCc3cc(C(F)(F)F)ccn3)s2)nn1` (stereo not drawn) [Example 520, 5-{3-fluoro-4-[4-({[4-(trifluoromethyl)pyridin-2-yl]methyl}carbamoyl)-1H-1,2,3-triazol-1-yl]butyl}-N-{[4-(trifluoromethyl)pyridin-2-yl]methyl}-1,3,4-thiadiazole-2-carboxamide]: the IC50 in experiment [1] is less than 100 nM. Also, the concentration giving a half-maximal response (EC50) in experiment [2] is less than 100 nM.

As for `NC(=O)c1nnc(CCC(F)Cn2cc(C(=O)NCc3cccc(OC(F)(F)F)c3)nn2)s1` (stereo not drawn) [Example 521, 5-{3-fluoro-4-[4-({[3-(trifluoromethoxy)phenyl]methyl}carbamoyl)-1H-1,2,3-triazol-1-yl]butyl}-1,3,4-thiadiazole-2-carboxamide], the IC50 in experiment [1] lay in the range of 100 to 500 nM. This compound also yielded a half-maximal effective concentration (EC50) in experiment [2] of 100 to 500 nM.

Turning to `CCNC(=O)c1nnc(CCC(F)Cn2cc(C(=O)NCc3cccc(OC(F)(F)F)c3)nn2)s1` (stereo not drawn) [Example 522, N-ethyl-5-{3-fluoro-4-[4-({[3-(trifluoromethoxy)phenyl]methyl}carbamoyl)-1H-1,2,3-triazol-1-yl]butyl}-1,3,4-thiadiazole-2-carboxamide], in experiment [1], the 50% inhibitory concentration (IC50) was less than 100 nM. In experiment [2], this compound gave an EC50 of 100 to 500 nM.
